# System: MV-4-11 cells
# Test: Gene expression microarray analysis (Affymetrix PrimeView) and GSEA
# Format: cell-based, human
# Set-up: RFU PODN (11730768_x_at) / Fold change /veh PODN (11730768_x_at) / RFU LINC00158 (11744669_a_at) / Fold change /veh LINC00158 (11744669_a_at) / RFU DUSP10 (11751237_a_at) / Fold change /veh DUSP10 (11751237_a_at) / RFU ID3 (11757404_x_at) / Fold change /veh ID3 (11757404_x_at) / RFU PLEKHG5 (11737974_s_at) / Fold change /veh PLEKHG5 (11737974_s_at) / RFU LRRC4B (11730491_at) / Fold change /veh LRRC4B (11730491_at) / RFU GIMAP4 (11747438_a_at) / Fold change /veh GIMAP4 (11747438_a_at) / RFU KRT8 (11758183_x_at) / Fold change /veh KRT8 (11758183_x_at) / RFU CNN1 (11734310_a_at) / Fold change /veh CNN1 (11734310_a_at) / RFU VPS37D (11726825_at) / Fold change /veh VPS37D (11726825_at) / RFU C10orf10 (11716522_x_at) / Fold change /veh C10orf10 (11716522_x_at) / RFU KIR2DL2 /// KIR2DL4 /// KIR2DL5A /// KIR2DL5B /// KIR2DS1 /// KIR2DS2 /// KIR2DS3 /// KIR2DS4 /// KIR3DL3 /// KIR3DL3 /// KIR3DS1 (11738374_at) / Fold change /veh KIR2DL2 /// KIR2DL4 /// KIR2DL5A /// KIR2DL5B /// KIR2DS1 /// KIR2DS2 /// KIR2DS3 /// KIR2DS4 /// KIR3DL3 /// KIR3DL3 /// KIR3DS1 (11738374_at) / RFU C1QL1 (11718748_at) / Fold change /veh C1QL1 (11718748_at) / RFU TMPRSS4 (11747572_a_at) / Fold change /veh TMPRSS4 (11747572_a_at) / RFU HAMP (11756126_x_at) / Fold change /veh HAMP (11756126_x_at) / RFU RNFT2 (11725882_a_at) / Fold change /veh RNFT2 (11725882_a_at) / RFU NR4A2 (11747474_a_at) / Fold change /veh NR4A2 (11747474_a_at) / RFU ABCC12 (11746883_a_at) / Fold change /veh ABCC12 (11746883_a_at) / RFU TMEM136 (11760407_x_at) / Fold change /veh TMEM136 (11760407_x_at) / RFU CLDN22 /// WWC2 (11732394_at) / Fold change /veh CLDN22 /// WWC2 (11732394_at) / RFU HLA-DPB1 (11760878_x_at) / Fold change /veh HLA-DPB1 (11760878_x_at) / RFU SPINT1 (11716480_a_at) / Fold change /veh SPINT1 (11716480_a_at) / RFU GAP43 (11754022_s_at) / Fold change /veh GAP43 (11754022_s_at) / RFU A4GNT (11735810_at) / Fold change /veh A4GNT (11735810_at) / RFU PRB3 (11715151_x_at) / Fold change /veh PRB3 (11715151_x_at) / RFU TUBB4B (11761932_at) / Fold change /veh TUBB4B (11761932_at) / RFU CAPN14 (11732068_a_at) / Fold change /veh CAPN14 (11732068_a_at) / RFU TMCC2 (11721928_a_at) / Fold change /veh TMCC2 (11721928_a_at) / RFU IRGQ (11745062_a_at) / Fold change /veh IRGQ (11745062_a_at) / RFU FAM174B (11720279_a_at) / Fold change /veh FAM174B (11720279_a_at) / RFU TMPRSS4 (11748680_a_at) / Fold change /veh TMPRSS4 (11748680_a_at) / RFU FAM212B (11763350_a_at) / Fold change /veh FAM212B (11763350_a_at) / RFU PLEKHG5 (11743358_a_at) / Fold change /veh PLEKHG5 (11743358_a_at) / RFU ZSCAN30 (11745921_a_at) / Fold change /veh ZSCAN30 (11745921_a_at) / RFU CMKLR1 (11741424_a_at) / Fold change /veh CMKLR1 (11741424_a_at) / RFU LOC101060620 /// MAPK8IP1 (11723275_at) / Fold change /veh LOC101060620 /// MAPK8IP1 (11723275_at) / RFU SPTSSB (11747773_x_at) / Fold change /veh SPTSSB (11747773_x_at) / RFU PRSS12 (11739890_at) / Fold change /veh PRSS12 (11739890_at) / RFU BIN1 (11741810_x_at) / Fold change /veh BIN1 (11741810_x_at) / RFU WNT11 (11732464_a_at) / Fold change /veh WNT11 (11732464_a_at) / RFU C10orf10 (11716521_a_at) / Fold change /veh C10orf10 (11716521_a_at) / RFU C5orf56 (11738089_at) / Fold change /veh C5orf56 (11738089_at) / RFU CYB561 (11721691_x_at) / Fold change /veh CYB561 (11721691_x_at) / RFU ANKRD19P (11752326_a_at) / Fold change /veh ANKRD19P (11752326_a_at) / RFU OR2T12 /// OR2T33 /// OR2T8 (11738714_s_at) / Fold change /veh OR2T12 /// OR2T33 /// OR2T8 (11738714_s_at) / RFU VCAN (11748164_a_at) / Fold change /veh VCAN (11748164_a_at) / RFU JSRP1 (11732532_at) / Fold change /veh JSRP1 (11732532_at) / RFU KRTAP10-11 (11738290_x_at) / Fold change /veh KRTAP10-11 (11738290_x_at) / RFU MYO3A (11730013_a_at) / Fold change /veh MYO3A (11730013_a_at) / RFU EBF3 (11725865_a_at) / Fold change /veh EBF3 (11725865_a_at) / RFU CAMK2N1 (11719241_x_at) / Fold change /veh CAMK2N1 (11719241_x_at) / RFU C5orf56 (11738088_a_at) / Fold change /veh C5orf56 (11738088_a_at) / RFU OLFML3 (11715873_a_at) / Fold change /veh OLFML3 (11715873_a_at) / RFU LOC100653217 /// NTM (11731650_a_at) / Fold change /veh LOC100653217 /// NTM (11731650_a_at) / RFU MAPK11 (11762145_a_at) / Fold change /veh MAPK11 (11762145_a_at) / RFU FIZ1 (11724087_x_at) / Fold change /veh FIZ1 (11724087_x_at) / RFU OASL (11726364_x_at) / Fold change /veh OASL (11726364_x_at) / RFU SOX15 (11748057_x_at) / Fold change /veh SOX15 (11748057_x_at) / RFU CD79A (11719716_a_at) / Fold change /veh CD79A (11719716_a_at) / RFU HIST1H1D (11736915_at) / Fold change /veh HIST1H1D (11736915_at) / RFU CASKIN2 (11723855_a_at) / Fold change /veh CASKIN2 (11723855_a_at) / RFU LOC730098 (11760151_x_at) / Fold change /veh LOC730098 (11760151_x_at) / RFU OR4N2 (11742367_at) / Fold change /veh OR4N2 (11742367_at) / RFU PRRT2 (11749266_a_at) / Fold change /veh PRRT2 (11749266_a_at) / RFU SNX32 (11753110_a_at) / Fold change /veh SNX32 (11753110_a_at) / RFU CDHR5 (11726645_a_at) / Fold change /veh CDHR5 (11726645_a_at) / RFU RCAN1 (11760418_a_at) / Fold change /veh RCAN1 (11760418_a_at) / RFU FAM167A (11723789_a_at) / Fold change /veh FAM167A (11723789_a_at) / RFU FAM26E (11764081_at) / Fold change /veh FAM26E (11764081_at) / RFU ISYNA1 (11749810_s_at) / Fold change /veh ISYNA1 (11749810_s_at) / RFU ACY1 (11761880_at) / Fold change /veh ACY1 (11761880_at) / RFU 11764098_at / Fold change /veh 11764098_at / RFU SAMD14 (11745864_x_at) / Fold change /veh SAMD14 (11745864_x_at) / RFU NPB (11741838_a_at) / Fold change /veh NPB (11741838_a_at) / RFU TMPRSS6 (11731388_a_at) / Fold change /veh TMPRSS6 (11731388_a_at) / RFU KRTAP10-2 (11738614_at) / Fold change /veh KRTAP10-2 (11738614_at) / RFU ARHGAP8 /// PRR5-ARHGAP8 (11727945_x_at) / Fold change /veh ARHGAP8 /// PRR5-ARHGAP8 (11727945_x_at) / RFU KRTAP5-7 /// NADSYN1 (11734609_at) / Fold change /veh KRTAP5-7 /// NADSYN1 (11734609_at) / RFU RASL12 (11751679_a_at) / Fold change /veh RASL12 (11751679_a_at) / RFU CDKN2B (11736163_a_at) / Fold change /veh CDKN2B (11736163_a_at) / RFU PRF1 (11729649_at) / Fold change /veh PRF1 (11729649_at) / RFU, ZNF638 /// ZNF638-IT1 / Fold change vs veh, ZNF638 /// ZNF638-IT1 / RFU, PANK3 / Fold change vs veh, PANK3 / RFU, SH3YL1 / Fold change vs veh, SH3YL1 / RFU, ZEB2 / Fold change vs veh, ZEB2 / RFU, NRIP1 / Fold change vs veh, NRIP1 / RFU, PTTG1IP / Fold change vs veh, PTTG1IP / RFU, CAPN2 / Fold change vs veh, CAPN2 / RFU, MED14 / Fold change vs veh, MED14 / RFU, SNORA58 / Fold change vs veh, SNORA58 / RFU, C1orf63 / Fold change vs veh, C1orf63 / RFU, LRRFIP1 / Fold change vs veh, LRRFIP1 / RFU, NDUFAF7 / Fold change vs veh, NDUFAF7 / RFU, SLC12A2 / Fold change vs veh, SLC12A2 / RFU, IBTK / Fold change vs veh, IBTK / RFU, ESF1 / Fold change vs veh, ESF1 / Fold change vs veh, TMEM50B / RFU, TAOK1 / Fold change vs veh, TAOK1 / RFU, ACBD3 / Fold change vs veh, ACBD3 / RFU, TMA16 / Fold change vs veh, TMA16 / RFU, RWDD3 / Fold change vs veh, RWDD3 / RFU, BCAT1 / Fold change vs veh, BCAT1 / RFU, EDEM3 / Fold change vs veh, EDEM3 / RFU, TMEM33 / Fold change vs veh, TMEM33 / RFU, WDR75 / Fold change vs veh, WDR75 / RFU, AHCTF1 / Fold change vs veh, AHCTF1 / RFU, TFRC / Fold change vs veh, TFRC / RFU, ZDHHC17 / Fold change vs veh, ZDHHC17 / RFU, NOM1 / Fold change vs veh, NOM1 / RFU, ARL8B / Fold change vs veh, ARL8B / RFU, ZBTB11 / Fold change vs veh, ZBTB11 / RFU, TAMM41 / Fold change vs veh, TAMM41 / RFU, KIAA1704 /// LOC100996395 / Fold change vs veh, KIAA1704 /// LOC100996395 / RFU, ING1 / Fold change vs veh, ING1 / RFU, TRMT61B / Fold change vs veh, TRMT61B / RFU, FUBP3 / Fold change vs veh, FUBP3 / RFU, TP53 / Fold change vs veh, TP53 / RFU, TNKS2 / Fold change vs veh, TNKS2 / RFU, ZFP14 / Fold change vs veh, ZFP14 / RFU, ACTR2 / Fold change vs veh, ACTR2 / RFU, PPP3R1 / Fold change vs veh, PPP3R1 / RFU, PIK3R1 / Fold change vs veh, PIK3R1 / RFU, HNRNPA1 / Fold change vs veh, HNRNPA1 / RFU, RNF170 / Fold change vs veh, RNF170 / RFU, ZNF28 / Fold change vs veh, ZNF28 / RFU, RNGTT / Fold change vs veh, RNGTT / RFU, OGT / Fold change vs veh, OGT / RFU, BRD1 / Fold change vs veh, BRD1 / RFU, MARS / Fold change vs veh, MARS / RFU, ZNF655 / Fold change vs veh, ZNF655 / RFU, FAHD1 / Fold change vs veh, FAHD1 / RFU, BDP1 / Fold change vs veh, BDP1 / RFU, LRRCC1 / Fold change vs veh, LRRCC1 / RFU, ARID1A / Fold change vs veh, ARID1A / RFU, ZNF146 / Fold change vs veh, ZNF146 / RFU, ZNF330 / Fold change vs veh, ZNF330 / RFU, GPN3 / Fold change vs veh, GPN3 / RFU, C9orf123 / Fold change vs veh, C9orf123 / RFU, N4BP2L2 / Fold change vs veh, N4BP2L2 / RFU, ARFIP1 / Fold change vs veh, ARFIP1 / RFU, FAM179B / Fold change vs veh, FAM179B / RFU, BCL10 / Fold change vs veh, BCL10 / RFU, UHRF1BP1L / Fold change vs veh, UHRF1BP1L / RFU, BET1 / Fold change vs veh, BET1 / RFU, CNOT2 / Fold change vs veh, CNOT2 / RFU, ZNF268 / Fold change vs veh, ZNF268 / Fold change vs veh, ZNF507 / RFU, DGCR2 / Fold change vs veh, DGCR2 / RFU, WDSUB1 / Fold change vs veh, WDSUB1 / Fold change vs veh, HSP90B1 /// MIR3652 / RFU, ADSS / Fold change vs veh, ADSS / RFU, GK / Fold change vs veh, GK / RFU, ZNF148 / Fold change vs veh, ZNF148 / RFU, TAF9 / Fold change vs veh, TAF9 / RFU, SLC1A5 / Fold change vs veh, SLC1A5 / RFU, SLMO2 / Fold change vs veh, SLMO2 / RFU, ABCC4 / Fold change vs veh, ABCC4 / RFU, LOC101060439 /// RAP1B / Fold change vs veh, LOC101060439 /// RAP1B / RFU, RFX7 / Fold change vs veh, RFX7 / RFU, GTPBP10 / Fold change vs veh, GTPBP10 / RFU, CNEP1R1 / Fold change vs veh, CNEP1R1 / RFU, BIVM-ERCC5 /// ERCC5 / Fold change vs veh, BIVM-ERCC5 /// ERCC5 / RFU, ILF3 / Fold change vs veh, ILF3 / RFU 11762660_at / Fold change /veh 11762660_at / RFU VCAN (11757783_s_at) / Fold change /veh VCAN (11757783_s_at) / RFU DDX43 (11728927_at) / Fold change /veh DDX43 (11728927_at) / RFU KRT8 (11758188_x_at) / Fold change /veh KRT8 (11758188_x_at) / RFU NKD1 (11759106_at) / Fold change /veh NKD1 (11759106_at) / RFU SRD5A1 (11742802_a_at) / Fold change /veh SRD5A1 (11742802_a_at) / RFU TPSAB1 /// TPSB2 (11721975_s_at) / Fold change /veh TPSAB1 /// TPSB2 (11721975_s_at) / RFU GSTM3 (11746129_a_at) / Fold change /veh GSTM3 (11746129_a_at) / RFU IL23R (11737362_x_at) / Fold change /veh IL23R (11737362_x_at) / RFU TMEM51 (11727254_a_at) / Fold change /veh TMEM51 (11727254_a_at) / RFU PIWIL2 (11732686_x_at) / Fold change /veh PIWIL2 (11732686_x_at) / RFU ORM1 (11744905_x_at) / Fold change /veh ORM1 (11744905_x_at) / RFU CCDC152 (11743942_at) / Fold change /veh CCDC152 (11743942_at) / RFU ECM1 (11717891_a_at) / Fold change /veh ECM1 (11717891_a_at) / RFU IL23R (11748794_a_at) / Fold change /veh IL23R (11748794_a_at) / RFU TNFAIP8L3 (11732012_x_at) / Fold change /veh TNFAIP8L3 (11732012_x_at) / RFU MBOAT4 (11741988_at) / Fold change /veh MBOAT4 (11741988_at) / RFU 11764193_at / Fold change /veh 11764193_at / RFU TMEM53 (11763286_at) / Fold change /veh TMEM53 (11763286_at) / RFU MAGEB2 (11727129_at) / Fold change /veh MAGEB2 (11727129_at) / RFU TMEM200A (11744735_a_at) / Fold change /veh TMEM200A (11744735_a_at) / RFU CCDC152 (11751479_a_at) / Fold change /veh CCDC152 (11751479_a_at) / RFU FAM211A (11726209_a_at) / Fold change /veh FAM211A (11726209_a_at) / RFU RGS16 (11746705_a_at) / Fold change /veh RGS16 (11746705_a_at) / RFU VCAN (11755009_s_at) / Fold change /veh VCAN (11755009_s_at) / RFU RHOB (11743442_s_at) / Fold change /veh RHOB (11743442_s_at) / RFU RGS16 (11720943_a_at) / Fold change /veh RGS16 (11720943_a_at) / RFU RGS16 (11720944_at) / Fold change /veh RGS16 (11720944_at) / RFU, VPS4B / Fold change vs veh, VPS4B / RFU, CREB1 / Fold change vs veh, CREB1 / RFU, DNAJC13 / Fold change vs veh, DNAJC13 / RFU, GNAQ / Fold change vs veh, GNAQ / RFU, CDK5R1 / Fold change vs veh, CDK5R1 / RFU, ZRANB3 / Fold change vs veh, ZRANB3 / RFU, CUL4A / Fold change vs veh, CUL4A / RFU, CCNY / Fold change vs veh, CCNY / RFU, UFL1 / Fold change vs veh, UFL1 / RFU, COG3 / Fold change vs veh, COG3 / RFU, DIAPH2 / Fold change vs veh, DIAPH2 / RFU, SKA2 / Fold change vs veh, SKA2 / RFU, AFF3 / Fold change vs veh, AFF3 / RFU, LMF1 / Fold change vs veh, LMF1 / RFU, IPO11 / Fold change vs veh, IPO11 / RFU, DFFB / Fold change vs veh, DFFB / RFU, FOXP1 / Fold change vs veh, FOXP1 / RFU, CARD8 / Fold change vs veh, CARD8 / RFU, STRN3 / Fold change vs veh, STRN3 / RFU, ADK / Fold change vs veh, ADK / RFU, RASSF2 / Fold change vs veh, RASSF2 / RFU, WIPF1 / Fold change vs veh, WIPF1 / RFU, LARP1B / Fold change vs veh, LARP1B / RFU, RASA1 / Fold change vs veh, RASA1 / RFU, RB1 / Fold change vs veh, RB1 / RFU, PPFIA1 / Fold change vs veh, PPFIA1 / RFU, MAT2A / Fold change vs veh, MAT2A / RFU, CCT5 / Fold change vs veh, CCT5 / RFU, WDR92 / Fold change vs veh, WDR92 / RFU, CUX1 / Fold change vs veh, CUX1 / RFU, TTC7A / Fold change vs veh, TTC7A / RFU, TMEM135 / Fold change vs veh, TMEM135 / RFU, DEPTOR / Fold change vs veh, DEPTOR / RFU, CPM / Fold change vs veh, CPM / RFU, DNAJB6 / Fold change vs veh, DNAJB6 / RFU, CACNA2D3 / Fold change vs veh, CACNA2D3 / RFU, DTX4 / Fold change vs veh, DTX4 / RFU, TFCP2 / Fold change vs veh, TFCP2 / RFU, GMCL1 /// GMCL1P1 / Fold change vs veh, GMCL1 /// GMCL1P1 / RFU, AEBP2 / Fold change vs veh, AEBP2 / RFU, SNHG1 /// SNORD22 /// SNORD25 /// SNORD26 /// SNORD27 /// SNORD28 /// SNORD29 /// SNORD31 / Fold change vs veh, SNHG1 /// SNORD22 /// SNORD25 /// SNORD26 /// SNORD27 /// SNORD28 /// SNORD29 /// SNORD31 / Fold change (Aza/veh), C12orf56 (ProbeSet 11735607_a_at) / Fold change (ACY-1035/veh), C12orf56 (ProbeSet 11735607_a_at) / Fold change (Aza/veh), FGFR1OP (ProbeSet 11751329_s_at) / Fold change (ACY-1035/veh), FGFR1OP (ProbeSet 11751329_s_at) / Fold change (Aza/veh), VPS36 (ProbeSet 11739960_a_at) / Fold change (ACY-1035/veh), VPS36 (ProbeSet 11739960_a_at) / RFU SYPL1 (11715823_x_at) / Fold change /veh SYPL1 (11715823_x_at) / RFU IGFBP7 (11715501_s_at) / Fold change /veh IGFBP7 (11715501_s_at) / RFU REEP3 (11722064_at) / Fold change /veh REEP3 (11722064_at) / RFU IGLL1 (11728026_x_at) / Fold change /veh IGLL1 (11728026_x_at): dose or concentration left out as unconfirmed
# Conditions: gene VPS36; Azacitidine vs DMSO; LIST F
compound,measurement,value
Nc1ncn([C@@H]2O[C@H](CO)[C@@H](O)[C@H]2O)c(=O)n1 [azacitidine],"Fold change (Aza/veh), VPS36 (ProbeSet 11739960_a_at)",1.14

# — publication PMC5218480 (PLoS ONE, 2017)
